Test results published in US12303497B2, “Anti-androgens for the treatment of metastatic castration-sensitive prostate cancer” (priority 2019, dated 2025).

System: patients with metastatic castration-sensitive prostate cancer (mCSPC)

In the case of `CNC(=O)c1ccc(N2C(=S)N(c3cnc(C#N)c(C(F)(F)F)c3)C(=O)C23CCC3)cc1F` [Apalutamide, 4-[7-(6-cyano-5-trifluoromethylpyridin-3-yl)-8-oxo-6-thioxo-5,7-diazaspiro[3.4]oct-5-yl]-2-fluoro-N-methylbenzamide], the “AE leading to dose interruption: Hyponatremia” value (All Grades) is reported as 1 (0.2) no. (%), the “AE leading to dose interruption: Infections” value (All Grades) is reported as 6 (1.1) no. (%) and the “AE leading to dose interruption: Influenza-like illness” value (All Grades) is reported as 1 (0.2) no. (%). The “AE leading to dose interruption: Insomnia” value (All Grades) was 3 (0.6) no. (%), the “AE leading to dose interruption: Ischemic cardiac events” value (All Grades) was 1 (0.2) no. (%) and the “AE leading to dose interruption: Large intestinal ulcer perforation” value (All Grades) was 1 (0.2) no. (%). For the same molecule, the “AE leading to dose interruption: Mental status changes” value (All Grades) was 1 (0.2) no. (%), the “AE leading to dose interruption: Muscular weakness” value (All Grades) was 1 (0.2) no. (%) and the “AE leading to dose interruption: Musculoskeletal stiffness” value (All Grades) was 0 no. (%). For the same molecule, the “AE leading to dose interruption: Nausea” value (All Grades) was 1 (0.2) no. (%), the “AE leading to dose interruption: Neutropenia” value (All Grades) was 2 (0.4) no. (%) and the “AE leading to dose interruption: New cancer neoplasm” value (All Grades) was 3 (0.6) no. (%). For the same molecule, the “AE leading to dose interruption: Osteoarthritis” value (All Grades) was 0 no. (%), the “AE leading to dose interruption: Osteoporosis” value (All Grades) was 1 (0.2) no. (%) and the “AE leading to dose interruption: Pain (grouped term)” value (All Grades) was 9 (1.7) no. (%). The “AE leading to dose interruption: Pathological fracture” value (All Grades) was 0 no. (%), the “AE leading to dose interruption: Peripheral edema” value (All Grades) was 1 (0.2) no. (%) and the “AE leading to dose interruption: Peripheral swelling” value (All Grades) was 0 no. (%). For the same molecule, the “AE leading to dose interruption: Proctalgia” value (All Grades) was 1 (0.2) no. (%), the “AE leading to dose interruption: Pyrexia” value (All Grades) was 3 (0.6) no. (%) and the “AE leading to dose interruption: Rash (grouped term)” value (All Grades) was 44 (8.4) no. (%). The “AE leading to dose interruption: Renal injury” value (All Grades) was 0 no. (%), the “AE leading to dose interruption: Rheumatoid arthritis” value (All Grades) was 1 (0.2) no. (%) and the “AE leading to dose interruption: Seizure” value (All Grades) was 1 (0.2) no. (%). The “AE leading to dose interruption: Spinal cord compression” value (All Grades) was 1 (0.2) no. (%), the “AE leading to dose interruption: Stomatitis” value (All Grades) was 1 (0.2) no. (%) and the “AE leading to dose interruption: Subarachnoid hematoma” value (All Grades) was 1 (0.2) no. (%). The “AE leading to dose interruption: Subarachnoid hemorrhage” value (All Grades) was 1 (0.2) no. (%), the “AE leading to dose interruption: Subdural hemorrhage” value (All Grades) was 0 no. (%) and the “AE leading to dose interruption: Syncope” value (All Grades) was 1 (0.2) no. (%). For the same molecule, the “AE leading to dose interruption: Thrombocytopenia” value (All Grades) was 1 (0.2) no. (%), the “AE leading to dose interruption: Tongue ulceration” value (All Grades) was 1 (0.2) no. (%) and the “AE leading to dose interruption: Urethral stenosis” value (All Grades) was 0 no. (%). For the same molecule, the “AE leading to dose interruption: Urinary incontinence” value (All Grades) was 1 (0.2) no. (%), the “AE leading to dose interruption: Urinary retention” value (All Grades) was 2 (0.4) no. (%) and the “AE leading to dose interruption: Urinary tract obstruction” value (All Grades) was 1 (0.2) no. (%). The “AE leading to dose interruption: Vertigo” value (All Grades) was 1 (0.2) no. (%), the “AE leading to dose interruption: Vomiting” value (All Grades) was 3 (0.6) no. (%) and the “AE leading to dose interruption: Weight increased” value (All Grades) was 0 no. (%). For the same molecule, the “AE leading to dose reduction: Aspartate aminotransferase or alanine aminotransferase increased” value (All Grades) was 0 no. (%), the “AE leading to dose reduction: Asthenia” value (All Grades) was 0 no. (%) and the “AE leading to dose reduction: Cognitive disorder” value (All Grades) was 1 (0.2) no. (%). The “AE leading to dose reduction: Dehydration” value (All Grades) was 1 (0.2) no. (%), the “AE leading to dose reduction: Fatigue” value (All Grades) was 2 (0.4) no. (%) and the “AE leading to dose reduction: General physical health deterioration” value (All Grades) was 1 (0.2) no. (%). The “AE leading to dose reduction: Headache” value (All Grades) was 1 (0.2) no. (%), the “AE leading to dose reduction: Hot flush” value (All Grades) was 1 (0.2) no. (%) and the “AE leading to dose reduction: Hypertension” value (All Grades) was 1 (0.2) no. (%). For the same molecule, the “AE leading to dose reduction: Lethargy” value (All Grades) was 0 no. (%), the “AE leading to dose reduction: Neutropenia” value (All Grades) was 2 (0.4) no. (%) and the “AE leading to dose reduction: Pain” value (All Grades) was 1 (0.2) no. (%). The “AE leading to dose reduction: Performance status decreased” value (All Grades) was 0 no. (%), the “AE leading to dose reduction: Rash (grouped term)” value (All Grades) was 28 (5.3) no. (%) and the “AE leading to dose reduction: Vertigo” value (All Grades) was 1 (0.2) no. (%). The “AE leading to dose reduction: Weight decreased” value (All Grades) was 1 (0.2) no. (%), the “AE of special interest: Fall” value (All Grades) was 39 (7.4) no. (%) and the “AE of special interest: Fracture (grouped term)” value (All Grades) was 33 (6.3) no. (%). For the same molecule, the “AE of special interest: Hypothyroidism (grouped term)” value (All Grades) was 34 (6.5) no. (%), the “AE of special interest: Rash (grouped term)” value (All Grades) was 142 (27.1) no. (%) and the “AE of special interest: Seizure (grouped term)” value (All Grades) was 3 (0.6) no. (%). The “Patients with treatment-emergent adverse events leading to discontinuation” value (All Grades) was 42 (8.0) no. (%), the “Patients with treatment-emergent adverse events leading to dose reduction” value (All Grades) was 37 (7.1) no. (%) and the “Patients with treatment-emergent events leading to dose interruption” value (All Grades) was 104 (19.8) no. (%). For the same molecule, the “TEAE: Anemia” value (All Grades) was 48 (9.2) no. (%), the “TEAE: Arthralgia” value (All Grades) was 91 (17.4) no. (%) and the “TEAE: Asthenia” value (All Grades) was 37 (7.1) no. (%). The “TEAE: Back pain” value (All Grades) was 91 (17.4) no. (%), the “TEAE: Blood alkaline phosphatase increased” value (All Grades) was 16 (3.1) no. (%) and the “TEAE: Bone pain” value (All Grades) was 34 (6.5) no. (%). For the same molecule, the “TEAE: Constipation” value (All Grades) was 47 (9.0) no. (%), the “TEAE: Fatigue” value (All Grades) was 103 (19.7) no. (%) and the “TEAE: Hot flush” value (All Grades) was 119 (22.7) no. (%). The “TEAE: Hypertension” value (All Grades) was 93 (17.7) no. (%), the “TEAE: Pain in extremity” value (All Grades) was 64 (12.2) no. (%) and the “TEAE: Pruritus” value (All Grades) was 56 (10.7) no. (%). The “TEAE: Rash generalized” value (All Grades) was 34 (6.5) no. (%), the “TEAE: Urinary retention” value (All Grades) was 13 (2.5) no. (%) and the “TEAE: Weight increased” value (All Grades) was 54 (10.3) no. (%). For the same molecule, the “AE leading to discontinuation: Alanine aminotransferase increased” value (Grade ≥3) was 0 no. (%), the “AE leading to discontinuation: Anxiety” value (Grade ≥3) was 0 no. (%) and the “AE leading to discontinuation: Atrial fibrillation” value (Grade ≥3) was 1 (0.2) no. (%). For the same molecule, the “AE leading to discontinuation: Cardiac failure” value (Grade ≥3) was 0 no. (%), the “AE leading to discontinuation: Cardio-respiratory arrest” value (Grade ≥3) was 1 (0.2) no. (%) and the “AE leading to discontinuation: Cardiogenic shock” value (Grade ≥3) was 1 (0.2) no. (%). The “AE leading to discontinuation: Cerebrovascular disorder” value (Grade ≥3) was 1 (0.2) no. (%), the “AE leading to discontinuation: Cognitive disorder” value (Grade ≥3) was 0 no. (%) and the “AE leading to discontinuation: Dehydration” value (Grade ≥3) was 0 no. (%). The “AE leading to discontinuation: Dyspnea” value (Grade ≥3) was 0 no. (%), the “AE leading to discontinuation: Euphoric mood” value (Grade ≥3) was 0 no. (%) and the “AE leading to discontinuation: Fatigue” value (Grade ≥3) was 1 (0.2) no. (%). For the same molecule, the “AE leading to discontinuation: Hot flush” value (Grade ≥3) was 0 no. (%), the “AE leading to discontinuation: Hypothermia” value (Grade ≥3) was 0 no. (%) and the “AE leading to discontinuation: Infections” value (Grade ≥3) was 1 (0.2) no. (%). For the same molecule, the “AE leading to discontinuation: Intracranial hemorrhage” value (Grade ≥3) was 0 no. (%), the “AE leading to discontinuation: Ischemic cardiac events” value (Grade ≥3) was 2 (0.4) no. (%) and the “AE leading to discontinuation: Large intestinal ulcer perforation” value (Grade ≥3) was 1 (0.2) no. (%).
